Results: patent US9156856B2, “Apoptosis-inducing agents for the treatment of cancer and immune and autoimmune diseases” (AbbVie Inc., priority 2009, dated 2015)

molecular target: Bcl-2 (Homo sapiens (Human), UniProt P10415); experiment: Time Resolved-Fluorescence Resonance Energy Transfer (TR-FRET) Bcl-2 binding assay with F-Bak peptide probe; settings: GST-Bcl-2 1 nM, F-Bak peptide probe 100 nM, Tb-anti-GST antibody 1 nM; Ki by Wang's equation
Procedure: Determination of the utility of compounds having Formula (I) as binders to and inhibitors of anti-apoptotic Bcl-2 proteins was performed using the Time Resolved-Fluorescence Resonance Energy Transfer (TR-FRET) Assay. Tb-anti-GST antibody was purchased from Invitrogen (Catalog No. PV4216).
Representative compounds were serially diluted in dimethyl sulfoxide (DMSO) starting at 50 μM (2× starting concentration; 10% DMSO) and 10 μL were transferred into a 384-well plate. The samples are then mixed on a shaker for 1 minute and incubated for an additional 3 hours at room temperature. For each assay, the probe/antibody and protein/probe/antibody were included on each assay plate as negative and positive controls, respectively. Fluorescence was measured on the ENVISION plate reader (Perkin Elmer) using a 340/35 nm excitation filter and 520/525 (F-Bak peptide) and 495/510 nm (Tb-labeled […] antibody) emission filters Inhibition constants (Ki) are shown in TABLE 2 below and were determined using Wang's equation (Wang Z.-X. An Exact Mathematical Expression For Describing Competitive Binding Of Two Different Ligands To A Protein Molecule. FEBS Lett. 1995, 360:111-4).
The inhibition constant (Ki) is the dissociation constant of an enzyme-inhibitor complex or a protein/small molecule complex, wherein the small molecule is inhibiting binding of one protein to another protein. So a large K, value indicates a low binding affinity and a small Ki value indicates a high binding affinity.
The compounds are therefore expected to have utility in treatment of diseases during which anti-apoptotic Bcl-2 protein is expressed.

Bcl-2, sequence (P10415 whole entry): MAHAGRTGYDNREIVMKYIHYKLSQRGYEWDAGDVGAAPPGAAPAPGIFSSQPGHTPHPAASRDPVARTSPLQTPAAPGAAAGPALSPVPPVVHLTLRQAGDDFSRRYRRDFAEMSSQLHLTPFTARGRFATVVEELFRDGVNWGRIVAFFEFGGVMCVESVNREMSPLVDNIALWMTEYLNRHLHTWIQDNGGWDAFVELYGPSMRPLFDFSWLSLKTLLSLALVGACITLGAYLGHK

First: CC1(C)CCC(CN2CCN(c3ccc(C(=O)NS(=O)(=O)c4cc([N+](=O)[O-])c(NCCCN5CCOCC5)s4)c(Oc4ccc5[nH]ccc5c4)c3)CC2)=C(c2ccc(Cl)cc2)C1 [Example 35, 4-(4-{[2-(4-chlorophenyl)-4,4-dimethylcyclohex-1-en-1-yl]methyl}piperazin-1-yl)-2-(1H-indol-5-yloxy)-N-({5-[(3-morpholin-4-ylpropyl)amino]-4-nitrothien-2-yl}sulfonyl)benzamide]
Second: Cc1nc(OCC2(F)CCOCC2)sc1S(=O)(=O)NC(=O)c1ccc(N2CCN(CC3=C(c4ccc(Cl)cc4)CC(C)(C)CC3)CC2)cc1Oc1cnc2[nH]ccc2c1 [Example 45, 4-(4-{[2-(4-chlorophenyl)-4,4-dimethylcyclohex-1-en-1-yl]methyl}piperazin-1-yl)-N-({2-[(4-fluorotetrahydro-2H-pyran-4-yl)methoxy]-4-methyl-1,3-thiazol-5-yl}sulfonyl)-2-(1H-pyrrolo[2,3-b]pyridin-5-yloxy)benzamide]
The Ki of the first is 3.3-fold lower: 2.07 nM for the first, 6.73 nM for the second. The first binds more tightly here.

First: Cc1cc(C)n2nc(S(=O)(=O)NC(=O)c3ccc(N4CCN(CC5=C(c6ccc(Cl)cc6)CC(C)(C)CC5)CC4)cc3Oc3cccc(Cl)c3)nc2n1 [Example 40, 2-(3-chlorophenoxy)-4-(4-{[2-(4-chlorophenyl)-4,4-dimethylcyclohex-1-en-1-yl]methyl}piperazin-1-yl)-N-[(5,7-dimethyl[1,2,4]triazolo[1,5-a]pyrimidin-2-yl)sulfonyl]benzamide]
Second: Cc1cc(C)n2nc(S(=O)(=O)NC(=O)c3ccc(N4CCN(CC5=C(c6ccc(Cl)cc6)CC(C)(C)CC5)CC4)cc3Oc3cc4cc[nH]c4cc3F)nc2n1 [Example 41, 4-(4-{[2-(4-chlorophenyl)-4,4-dimethylcyclohex-1-en-1-yl]methyl}piperazin-1-yl)-N-[(5,7-dimethyl[1,2,4]triazolo[1,5-a]pyrimidin-2-yl)sulfonyl]-2-[(6-fluoro-1H-indol-5-yl)oxy]benzamide]
The Ki of the first is 7.7-fold higher: 0.407 nM for the first, 0.053 nM for the second.

O=C(NS(=O)(=O)N1CCOCC1)c1ccc(N2CCN(Cc3ccccc3-c3ccc(Cl)cc3)CC2)cc1 [Example 14, 4-{4-[(4′-chloro-1,1′-biphenyl-2-yl)methyl]piperazin-1-yl}-N-(morpholin-4-ylsulfonyl)benzamide] and Cc1noc(C)c1S(=O)(=O)NC(=O)c1ccc(N2CCN(Cc3ccccc3-c3ccc(Cl)cc3)CC2)cc1 [Example 32, 4-{4-[(4′-chloro-1,1′-biphenyl-2-yl)methyl]piperazin-1-yl}-N-[(3,5-dimethylisoxazol-4-yl)sulfonyl]benzamide] are within 1.5-fold of each other in Ki: 409 nM for the first, 438 nM for the second.

Going from COC1(CC2CCCCC2)CCN(c2ccc(C(=O)NS(=O)(=O)c3cc([N+](=O)[O-])c(N[C@H](CCN(C)C)CSc4ccccc4)s3)cc2)CC1 [Example 1, 4-[4-(cyclohexylmethyl)-4-methoxypiperidin-1-yl]-N-{[5-({(1R)-3-(dimethylamino)-1-[(phenylthio)methyl]propyl}amino)-4-nitrothien-2-yl]sulfonyl}benzamide] to COC1(Cc2cccc(C)c2)CCN(c2ccc(C(=O)NS(=O)(=O)c3cc([N+](=O)[O-])c(N[C@H](CCN(C)C)CSc4ccccc4)s3)cc2)CC1 [Example 2, N-{[5-({(1R)-3-(dimethylamino)-1-[(phenylthio)methyl]propyl}amino)-4-nitrothien-2-yl]sulfonyl}-4-[4-methoxy-4-(3-methylbenzyl)piperidin-1-yl]benzamide], the Ki rises from 51.4 nM to 82.9 nM (1.6-fold).

Cc1nsc(S(=O)(=O)NC(=O)c2ccc(N3CCN(Cc4ccccc4-c4ccc(Cl)cc4)CC3)cc2)c1Cl [Example 24, 4-{4-[(4′-chloro-1,1′-biphenyl-2-yl)methyl]piperazin-1-yl}-N-[(4-chloro-3-methylisothiazol-5-yl)sulfonyl]benzamide] and Cc1nn(C)c(Cl)c1S(=O)(=O)NC(=O)c1ccc(N2CCN(Cc3ccccc3-c3ccc(Cl)cc3)CC2)cc1 [Example 29, 4-{4-[(4′-chloro-1,1′-biphenyl-2-yl)methyl]piperazin-1-yl}-N-[(5-chloro-1,3-dimethyl-1H-pyrazol-4-yl)sulfonyl]benzamide] are within 1.5-fold of each other in Ki: 342 nM for the first, 340 nM for the second.

First: CC(=O)N(CCSc1ccccc1)C1CCN(S(=O)(=O)NC(=O)c2ccc(N3CCN(Cc4ccccc4-c4ccc(Cl)cc4)CC3)cc2)CC1 [Example 5, N-[(4-{acetyl[2-(phenylthio)ethyl]amino}piperidin-1-yl)sulfonyl]-4-{4-[(4′-chloro-1,1′-biphenyl-2-yl)methyl]piperazin-1-yl}benzamide]
Second: CN(CCSc1ccccc1)C1CCN(S(=O)(=O)NC(=O)c2ccc(N3CCN(Cc4ccccc4-c4ccc(Cl)cc4)CC3)cc2)CC1 [Example 6, 4-{4-[(4′-chloro-1,1′-biphenyl-2-yl)methyl]piperazin-1-yl}-N-[(4-{methyl[2-(phenylthio)ethyl]amino}piperidin-1-yl)sulfonyl]benzamide]
The Ki of the first is 4-fold lower: 176 nM for the first, 704 nM for the second.

Going from O=C(NS(=O)(=O)c1ccc(/C=C/c2ncon2)s1)c1ccc(N2CCN(Cc3ccccc3-c3ccc(Cl)cc3)CC2)cc1 [Example 26, 4-{4-[(4′-chloro-1,1′-biphenyl-2-yl)methyl]piperazin-1-yl}-N-({5-[(E)-2-(1,2,4-oxadiazol-3-yl)vinyl]thien-2-yl}sulfonyl)benzamide] to O=C(NS(=O)(=O)c1ccc(-c2ccno2)o1)c1ccc(N2CCN(Cc3ccccc3-c3ccc(Cl)cc3)CC2)cc1 [Example 31, 4-{4-[(4′-chloro-1,1′-biphenyl-2-yl)methyl]piperazin-1-yl}-N-[(5-isoxazol-5-yl-2-furyl)sulfonyl]benzamide], the Ki falls from 393 nM to 139 nM (2.8-fold). The second binds more tightly here.

First: CC(=O)Nc1nc(C)c(S(=O)(=O)NC(=O)c2ccc(N3CCN(Cc4ccccc4-c4ccc(Cl)cc4)CC3)cc2)s1 [Example 11, N-{[2-(acetylamino)-4-methyl-1,3-thiazol-5-yl]sulfonyl}-4-{4-[(4′-chloro-1,1′-biphenyl-2-yl)methyl]piperazin-1-yl}benzamide]
Second: Cc1c(S(=O)(=O)NC(=O)c2ccc(N3CCN(Cc4ccccc4-c4ccc(Cl)cc4)CC3)cc2)sc2ccc(F)cc12 [Example 17, 4-{4-[(4′-chloro-1,1′-biphenyl-2-yl)methyl]piperazin-1-yl}-N-[(5-fluoro-3-methyl-1-benzothien-2-yl)sulfonyl]benzamide]
The Ki of the first is 2-fold lower: 177 nM for the first, 356 nM for the second. The first binds more tightly here.

Compared with Cc1nn(CCCl)c(C)c1S(=O)(=O)NC(=O)c1ccc(N2CCN(Cc3ccccc3-c3ccc(Cl)cc3)CC2)cc1 [Example 27, 4-{4-[(4′-chloro-1,1′-biphenyl-2-yl)methyl]piperazin-1-yl}-N-{[1-(2-chloroethyl)-3,5-dimethyl-1H-pyrazol-4-yl]sulfonyl}benzamide], Cc1cc(C)n2nc(S(=O)(=O)NC(=O)c3ccc(N4CCN(Cc5ccccc5-c5ccc(Cl)cc5)CC4)cc3)nc2n1 [Example 20, 4-{4-[(4′-chloro-1,1′-biphenyl-2-yl)methyl]piperazin-1-yl}-N-[(5,7-dimethyl[1,2,4]triazolo[1,5-a]pyrimidin-2-yl)sulfonyl]benzamide] is 9-fold lower in Ki: 434 nM for the first, 48.1 nM for the second.

First: O=C(NS(=O)(=O)c1csc(C(F)(F)F)c1-c1ccccc1)c1ccc(N2CCN(Cc3ccccc3-c3ccc(Cl)cc3)CC2)cc1 [Example 16, 4-{4-[(4′-chloro-1,1′-biphenyl-2-yl)methyl]piperazin-1-yl}-N-{[4-phenyl-5-(trifluoromethyl)thien-3-yl]sulfonyl}benzamide]
Second: Cc1c(S(=O)(=O)NC(=O)c2ccc(N3CCN(Cc4ccccc4-c4ccc(Cl)cc4)CC3)cc2)sc2ccc(Br)cc12 [Example 25, N-[(5-bromo-3-methyl-1-benzothien-2-yl)sulfonyl]-4-{4-[(4′-chloro-1,1′-biphenyl-2-yl)methyl]piperazin-1-yl}benzamide]
The Ki of the first is 9.8-fold lower: 37.9 nM for the first, 372 nM for the second. The first binds more tightly here.

Compared with CN(C)CC[C@H](CSc1ccccc1)Nc1sc(S(=O)(=O)NC(=O)c2ccc(N3CCC(=Cc4ccccc4C(F)(F)F)CC3)cc2)cc1[N+](=O)[O-] [Example 36, N-{[5-({(1R)-3-(dimethylamino)-1-[(phenylthio)methyl]propyl}amino)-4-nitrothien-2-yl]sulfonyl}-4-{4-[2-(trifluoromethyl)benzylidene]piperidin-1-yl}benzamide], CN(C)CC[C@H](CSc1ccccc1)Nc1sc(S(=O)(=O)NC(=O)c2ccc(N3CCN(CC=C(c4ccccc4)c4ccccc4)CC3)cc2)cc1[N+](=O)[O-] [Example 3, N-{[5-({(1R)-3-(dimethylamino)-1-[(phenylthio)methyl]propyl}amino)-4-nitrothien-2-yl]sulfonyl}-4-[4-(3,3-diphenylprop-2-enyl)piperazin-1-yl]benzamide] is 5.7-fold lower in Ki: 294 nM for the first, 51.7 nM for the second. The second binds more tightly here.

Cc1nc(OC[C@@H]2CN(C(=O)OC(C)(C)C)CCO2)sc1S(=O)(=O)NC(=O)c1ccc(N2CCN(CC3=C(c4ccc(Cl)cc4)CC(C)(C)CC3)CC2)cc1Oc1cccc2[nH]cnc12 [Example 44, tert-butyl (2S)-2-{[(5-{[2-(1H-benzimidazol-4-yloxy)-4-(4-{[2-(4-chlorophenyl)-4,4-dimethylcyclohex-1-en-1-yl]methyl}piperazin-1-yl)benzoyl]sulfamoyl}-4-methyl-1,3-thiazol-2-yl)oxy]methyl}morpholine-4-carboxylate] showed a Ki of 24.8 nM.
